Test results published in PMC9822400, “The Lipophilic Purine Nucleoside—Tdp1 Inhibitor—Enhances DNA Damage Induced by Topotecan In Vitro and Potentiates the Antitumor Effect of Topotecan In Vivo” (Molecules, 2022).
Entries after “also recorded” stand apart in the source; their conditions may differ.

Legend:
[1] = target: T1, purified recombinant human Tdp1 (Homo sapiens, UniProt Q9NUW8); assay: Real-time detection of Tdp1 activity (removal of BHQ1 from a 5′-FAM 16-nt oligonucleotide, fluorescence); format: biochemical; settings: for IC50: 1.5 nM Tdp1, 50 nM oligonucleotide, 25 °C, three independent experiments
T1 construct: made in house
Description: In this work, four natural nucleosides (1-4) and […] aromatic lipophilic derivatives of purine nucleosides (5a-f, 6a-d) were tested for Tdp1 activity. The used test system was based on the enzyme’s ability to remove Black Hole Quencher 1 (BHQ1) from the 3′ end of a 5′ FAM 16-nt oligonucleotide. As a result, an increase in FAM fluorescence was detected and the obtained kinetic curves were used to calculate the IC50 parameter (the concentration of the inhibitor at which the enzyme activity is reduced by half). We have found potent Tdp1 inhibitors with IC50 in the range from 0.3 to 7 μM (Table 1).
Purified human recombinant Tdp1 was prepared as described earlier. Real-time detection of Tdp1 activity was reported in our previous work. The approach consists of a fluorescence intensity measurement of the reaction of quencher removal from the fluorophore-quencher coupled DNA oligonucleotide catalyzed by Tdp1 in the presence of the inhibitor (the control samples contained 1% DMSO). The biosensor was single-stranded oligonucleotide (5′-[FAM] AAC GTC AGGGTC TTC C [BHQ]-3′) containing fluorophore at the 5′ end (5,6-FAM) and a Black Hole Quencher 1 (BHQ) at the 3′ end, and was synthesized in the Laboratory of nucleic acid chemistry at the Institute of Chemical Biology and Fundamental Medicine SB RAS, Novosibirsk, Russia. The reactions were incubated at a constant temperature 25 °C in a POLARstar OPTIMA fluorimeter, BMG LABTECH, GmbH, to measure fluorescence every 55 s (Ex485/Em520 nm) during the linear phase (here, the data are from 0 to 8 min). […] The IC50 values were determined using a six-point concentration response curve in three independent experiments and calculated using MARS Data Analysis 2.0 (BMG LABTECH).

[2] = Cell culture cytotoxicity assay (EZ4U colorimetric test); format: cell-based; settings: human, HeLa cells
Text: (§1) Tdp1 inhibitors are intended to be used in therapeutic cocktails to sensitize tumors to the action of anticancer Top1 poisons. […] To assess the toxicity of the compounds, their effect on the survival of the HeLa cell line (human cervical cancer) was studied using the colorimetric test of metabolic activity of cells EZ4U, which reflects the survival of cells in the presence of the studied compounds. The EZ4U assay is based on the ability of living cells to reduce the colorless tetrazolium salt XTT [sodium 3,3′-{1-(phenylamino)-carbonyl-3,4-tetrazolium) -bis(4-methoxy-6-nitro)-benzene sulfonic acid hydrate] to an orange water-soluble formazan product. This method was used to investigate the intrinsic cytotoxicity of promising inhibitors discovered in the course of this work, as well as the toxicity of their combination with Tpc.
(§2) Cytotoxicity of the compounds was examined on human cell lines HeLa using an EZ4U colorimetric test (Biomedica, Vienna, Austria). The HeLa cell line was obtained from the Russian Cell Culture Collection (RCCC) Institute of Cytology RAS, St. Petersburg, Russia. The cells were grown in DMEM/F12 medium (Gibco, Thermo Fisher Scientific, Waltham, MA, USA), with 1x GlutaMAX (Gibco, Thermo Fisher Scientific, Waltham, MA, USA), 50 IU/mL penicillin, 50 μg/mL streptomycin (MP Biomedicals), and in the presence of 10% fetal bovine serum (Biolot, Saint-Petersburg, Russia) in a 5% CO2 atmosphere. Since lipophilic nucleosides are soluble in DMSO, cells were grown in the presence of 1% DMSO in the control wells. After the formation of a 30–50% monolayer, the tested compounds were added to the medium, and the cell culture was monitored for 3 days. The values were normalized to their own control in each case. At least three independent experiments were carried out. The 50% cytotoxic concentration (CC50) was defined as the compound concentration that reduced the cell viability by 50% when compared to the untreated controls. The CC50 value was determined using OriginPro 8.6.0 software (OriginLab, Northampton, MA, USA). The measurements were carried out in three independent experiments.

human recombinant PARP2 = target: T2, human recombinant PARP2 (Homo sapiens, UniProt Q9UGN5); assay: PARP2 activity by inclusion of α-[32P]-NAD+ in poly(ADP-ribose); format: biochemical; settings: in the presence of 1 mM compound; read-out: Residual activity of PARP2
T2 construct: made in house
Description: (§3) Since it has previously been shown that nucleoside derivatives can inhibit enzymes of the PARP family, we also checked whether the studied compounds were able to inhibit the enzymes PARP1 and PARP2. […] Thus, when using our compounds, one cannot expect side effects from PARP1/2.
(§4) Purified human recombinant PARP1/2 [65] and [^32P] NAD^+ [27] were prepared as described earlier. The activity of PARP1/2 was evaluated by the rate of incorporation of the radioactive label into the acid-insoluble reaction product—PAR as described previously.

human recombinant PARP1 = target: T3, human recombinant PARP1 (Homo sapiens, UniProt P09874); assay: PARP1 activity by inclusion of α-[32P]-NAD+ in poly(ADP-ribose); format: biochemical; settings: in the presence of 1 mM compound; read-out: Residual activity of PARP1
T3 construct: made in house
Description: as §3, §4

HeLa cells [3] = assay: Effect of compounds on topotecan cytotoxicity (EZ4U test); format: cell-based, human; settings: compound 10 μM in combination with Tpc
Text: as §1
As already mentioned, we expected to increase the efficacy and/or reduce the dosage of Tpc with Tdp1 inhibitors. To do this, we studied the effect of nucleoside derivatives on Tpc cytotoxicity. […] We attribute this to the probable presence of protein targets other than Tdp1 in the cell.
as §2

HeLa cells [4] = assay: Alkaline Comet assay, accumulation of DNA damage; format: cell-based; settings: for DNA in tail: Topotecan 10 μM alone (0 μM compound), 1 h
Text: We studied the effect of Tdp1 inhibitors 5f and 6d on the accumulation of DNA damage by single-cell gel electrophoresis (Comet assay). […] This method has proven to be a simple, fast, and a quite sensitive way to detect DNA damage at the level of a single cell, allowing one to analyze almost any eukaryotic cell culture. Several analysis options allow one to visualize various types of DNA damage: single- and double-stranded breaks and alkaline-labile sites. This allows this method to be widely used in fundamental studies of DNA damage and repair and in testing the genotoxicity of new chemical and pharmaceutical drugs in vitro and in vivo [51, 52]. To study potential drugs, the alkaline version of the method (pH > 13) proposed by Singh and co-authors is widely used. This method allows the detection of all types of DNA damage with high sensitivity. In cells with a large amount of DNA damage, the structural organization and integrity of DNA are disrupted, which leads to its relaxation and/or fragmentation. As a result, cellular DNA in an electric field gives the observed objects the appearance of a “comet”.
Before studying the effect of Tdp1 inhibitors on the accumulation of DNA damage, it was necessary to find out how long the generation of DNA damage by Tpc and their repair take place in HeLa cells. To do this, cell culture was treated with Tpc at 1, 10, and 100 μM concentrations for 30 min, 1, 2, and 3 h and the level of damage to individual cells was monitored by Comet assay. It was shown that Tpc caused the greatest amount of damage after 30 minutes’ treatment. After this time, the repair systems began to correct these lesions and as a result, after 3 h most of them have been eliminated (Figure S9). […] The level of DNA damage at this point was enough to be detected, the data were reproducible, and can be evaluated by the Comet assay. The effect could be enhanced by the tested compounds without leading to cell death. It was important for us to see this enhancement in the presence of our compounds.
HeLa cell culture was grown in a 24-well plate to a concentration of 0.05 million/mL, then treated with the tested compounds and incubated for 1 h. To obtain a cell suspension, the cells were treated with trypsin (30 µL in each well for 5 min at 37 °C), and then 200 µL of PBS + 10% FBS were added to each well.
The resulting cell suspension (50 µL) was mixed with 250 µL of a 1% solution of molten low melting agarose (CertifiedTM LMAgarose; BIO-RAD), 250 µL of this mixture was transferred to the slides pre-coated with a 1% normal melting agarose (Agarose; Helicon), and left for several minutes at 4 °C to solidify. The resulting slides were incubated in a lysing solution (2.5 M NaCl, 100 mM EDTA, 10 mM Tris base, 1% Triton, 5% DMSO, pH 10.0) for an hour at 4 °C. Then the slides were immersed in an electrophoretic buffer (300 mM NaOH, 1 mM EDTA, pH > 13) for 45 min at 4 °C. Electrophoresis was performed at 20 V, 450 mA for 10 min while cooling on ice. After that, the slides were immersed 2 times for 5 min in 0.4 M Tris-HCl pH 7.5 solution for neutralization, washed twice with cold water, and stained with SYBR Green I (excitation maximum at 497 nm, emission maximum at 520 nm; Thermo Fisher Scientific KK).
The images were obtained using a CELENA © S digital microscope (Logos Biosystems, Inc., Annandale, VA, USA) and analyzed with Comet analysis software (Trevigen, Inc., Gaithersburg, MD, USA. In all experiments, 2 slides were evaluated for each sample by counting at least 200 cells on the glass. As a parameter for measuring the level of DNA damage, the median value of the percentage of DNA in the tail was chosen (% Tail DNA = 100 × the intensity of DNA fluorescence in the tail of the comet/the intensity of fluorescence of the total DNA of the comet).

T3 sequence (P09874 whole entry): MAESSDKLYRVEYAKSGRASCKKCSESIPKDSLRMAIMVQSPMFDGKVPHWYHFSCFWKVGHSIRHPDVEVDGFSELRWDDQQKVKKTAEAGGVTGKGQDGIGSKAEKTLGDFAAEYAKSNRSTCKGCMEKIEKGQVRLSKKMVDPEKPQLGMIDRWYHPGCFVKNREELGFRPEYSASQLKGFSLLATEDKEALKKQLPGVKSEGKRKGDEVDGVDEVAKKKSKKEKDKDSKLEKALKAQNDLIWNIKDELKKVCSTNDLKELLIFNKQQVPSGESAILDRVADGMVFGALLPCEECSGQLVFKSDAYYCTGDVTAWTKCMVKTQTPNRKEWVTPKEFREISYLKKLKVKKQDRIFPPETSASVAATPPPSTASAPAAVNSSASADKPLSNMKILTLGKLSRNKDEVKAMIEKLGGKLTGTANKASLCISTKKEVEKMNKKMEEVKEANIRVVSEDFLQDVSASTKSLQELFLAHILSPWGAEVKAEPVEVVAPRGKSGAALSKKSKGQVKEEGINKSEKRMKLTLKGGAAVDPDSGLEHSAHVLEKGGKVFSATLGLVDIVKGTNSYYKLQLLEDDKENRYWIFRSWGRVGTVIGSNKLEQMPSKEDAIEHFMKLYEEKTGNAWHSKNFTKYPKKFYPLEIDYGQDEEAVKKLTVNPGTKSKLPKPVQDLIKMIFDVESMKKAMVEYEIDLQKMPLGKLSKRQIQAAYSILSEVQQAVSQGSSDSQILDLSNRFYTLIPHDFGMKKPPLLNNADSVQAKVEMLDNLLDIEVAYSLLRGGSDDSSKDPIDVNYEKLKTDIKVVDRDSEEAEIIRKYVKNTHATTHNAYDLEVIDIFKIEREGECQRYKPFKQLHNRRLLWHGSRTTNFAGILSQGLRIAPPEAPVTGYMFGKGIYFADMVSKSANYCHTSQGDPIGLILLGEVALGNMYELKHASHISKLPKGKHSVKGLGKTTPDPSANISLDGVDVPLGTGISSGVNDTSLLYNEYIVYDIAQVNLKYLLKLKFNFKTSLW
T1 sequence (Q9NUW8 whole entry): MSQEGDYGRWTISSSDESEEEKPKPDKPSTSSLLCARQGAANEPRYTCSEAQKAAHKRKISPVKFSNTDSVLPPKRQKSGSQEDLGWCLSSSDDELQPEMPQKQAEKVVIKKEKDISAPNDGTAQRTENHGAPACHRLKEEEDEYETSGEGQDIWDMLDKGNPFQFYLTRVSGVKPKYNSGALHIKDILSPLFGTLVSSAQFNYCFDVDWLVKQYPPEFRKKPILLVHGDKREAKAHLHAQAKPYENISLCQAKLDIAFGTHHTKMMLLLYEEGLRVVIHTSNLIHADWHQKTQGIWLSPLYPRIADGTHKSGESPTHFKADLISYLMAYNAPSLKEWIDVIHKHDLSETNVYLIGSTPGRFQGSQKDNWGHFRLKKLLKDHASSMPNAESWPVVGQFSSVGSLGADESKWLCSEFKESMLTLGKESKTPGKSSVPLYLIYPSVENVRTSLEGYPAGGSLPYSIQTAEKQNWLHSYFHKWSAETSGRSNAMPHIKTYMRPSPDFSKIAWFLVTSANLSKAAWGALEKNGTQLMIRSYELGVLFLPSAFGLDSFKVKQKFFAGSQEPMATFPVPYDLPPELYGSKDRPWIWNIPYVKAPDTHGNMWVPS
T2 sequence (Q9UGN5 whole entry): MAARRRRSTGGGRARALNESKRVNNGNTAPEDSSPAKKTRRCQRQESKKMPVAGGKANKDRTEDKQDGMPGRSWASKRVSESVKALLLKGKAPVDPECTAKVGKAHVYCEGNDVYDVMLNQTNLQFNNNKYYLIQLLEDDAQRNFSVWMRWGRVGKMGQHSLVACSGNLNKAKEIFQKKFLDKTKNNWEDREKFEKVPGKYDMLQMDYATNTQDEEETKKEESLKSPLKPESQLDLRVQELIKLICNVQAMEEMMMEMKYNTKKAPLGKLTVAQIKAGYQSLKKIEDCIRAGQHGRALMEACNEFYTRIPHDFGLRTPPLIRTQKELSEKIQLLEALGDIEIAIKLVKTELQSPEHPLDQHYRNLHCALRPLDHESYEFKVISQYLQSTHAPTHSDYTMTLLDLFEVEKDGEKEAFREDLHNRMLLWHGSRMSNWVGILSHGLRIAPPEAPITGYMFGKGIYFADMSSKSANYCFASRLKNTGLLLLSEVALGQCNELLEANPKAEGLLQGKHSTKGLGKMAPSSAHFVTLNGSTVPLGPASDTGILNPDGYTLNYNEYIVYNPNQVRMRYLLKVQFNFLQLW

## OC[C@H]1O[C@@H](n2cnc3c(NCc4ccc(-c5ccccc5)cc4)ncnc32)[C@H](O)[C@@H]1O [5a]
[1]
  Tdp1 inhibition, in words: practically did not lead to a decrease in Tdp1 activity; also recorded: did not inhibit Tdp1
  IC50: > 50 µM
[2]
  CC50 at 3 days: > 100 µM
Human recombinant PARP2
  remaining activity at 1000 µM: 101 ± 24%
Human recombinant PARP1
  remaining activity at 1000 µM: 112 ± 11%

## OC[C@H]1O[C@@H](n2cnc3c(NCc4c5ccccc5cc5ccccc45)ncnc32)[C@H](O)[C@@H]1O [5c]
HeLa cells [3]
  Enhancement of Tpc Cytotoxicity by 10 μM Compounds: 2.2 Times
[1]
  IC50: 22 ± 3 µM
[2]
  CC50 at 3 days: 58 ± 2 µM
Human recombinant PARP2
  remaining activity at 1000 µM: 104 ± 16%
Human recombinant PARP1
  remaining activity at 1000 µM: 92 ± 14%

## OC[C@H]1O[C@@H](n2cnc3c(NCc4cc5ccc6cccc7ccc(c4)c5c67)ncnc32)[C@H](O)[C@@H]1O [5d]
[1]
  Tdp1 inhibition, in words: practically did not lead to a decrease in Tdp1 activity; also recorded: did not inhibit Tdp1
  IC50: > 50 µM
[2]
  CC50 at 3 days: 56 ± 10 µM
Human recombinant PARP2
  remaining activity at 1000 µM: 100 ± 15%
Human recombinant PARP1
  remaining activity at 1000 µM: 88 ± 21%

## O=C(OC[C@H]1O[C@@H](n2cnc3c(O)ncnc32)[C@H](OC(=O)c2ccccc2)[C@@H]1OC(=O)c1ccccc1)c1ccccc1 [6a, 2′,3′,5′-Tri-O-benzoylinosine]
HeLa cells [3]
  Enhancement of Tpc Cytotoxicity by 10 μM Compounds: 1.8 Times
[1]
  IC50: 7 ± 1 µM
[2]
  CC50 at 3 days: 58 ± 5 µM
Human recombinant PARP2
  remaining activity at 1000 µM: 96 ± 30%
Human recombinant PARP1
  remaining activity at 1000 µM: 87 ± 10%

## CC[C@@]1(O)C(=O)OCc2c1cc1n(c2=O)Cc2cc3c(CN(C)C)c(O)ccc3nc2-1 [Tpc, topotecan]
HeLa cells [4]; series of compound 5f
  DNA in tail: 35±5%
HeLa cells [4]; series of compound 6d
  DNA in tail: 39±1%
HeLa cells [4]; Tpc at 1, 10 and 100 μM
  Time after which most DNA lesions have been eliminated: 3 h
HeLa cells [4]; Tpc at 1, 10 and 100 μM for 30 min, 1, 2 and 3 h
  Treatment time with the greatest amount of DNA damage: 30 min

## Nc1nc2c(ncn2[C@@H]2O[C@H](CO)[C@@H](O)[C@H]2O)c(=O)[nH]1 [compound 1, reference compound]
[1]
  IC50: > 50 µM
Human recombinant PARP2
  remaining activity at 1000 µM: 91 ± 5%
Human recombinant PARP1
  remaining activity at 1000 µM: 86 ± 5%

## Nc1nc2c(ncn2[C@H]2C[C@H](O)[C@@H](CO)O2)c(=O)[nH]1 [compound 2, reference compound]
[1]
  IC50: > 50 µM
Human recombinant PARP2
  remaining activity at 1000 µM: 87 ± 18%
Human recombinant PARP1
  remaining activity at 1000 µM: 102 ± 11%

## Nc1ncnc2c1ncn2[C@@H]1O[C@H](CO)[C@@H](O)[C@H]1O [compound 3, reference compound]
[1]
  IC50: > 50 µM
Human recombinant PARP2
  remaining activity at 1000 µM: 95 ± 9%
Human recombinant PARP1
  remaining activity at 1000 µM: 94 ± 9%

## Nc1ncnc2c1ncn2[C@H]1C[C@H](O)[C@@H](CO)O1 [compound 4, reference compound]
[1]
  IC50: > 50 µM
Human recombinant PARP2
  remaining activity at 1000 µM: 79 ± 15%
Human recombinant PARP1
  remaining activity at 1000 µM: 84 ± 12%

## OC[C@H]1O[C@@H](n2cnc3c(NC(c4ccccc4)(c4ccccc4)c4ccccc4)ncnc32)[C@H](O)[C@@H]1O [compound 5b]
HeLa cells [3]
  Enhancement of Tpc Cytotoxicity by 10 μM Compounds: 1.7 Times
[1]
  Tdp1 inhibition, in words: practically did not lead to a decrease in Tdp1 activity
  IC50: > 50 µM
[2]
  CC50 at 3 days: 59.6 ± 0.6 µM
Human recombinant PARP2
  remaining activity at 1000 µM: 107 ± 9%
Human recombinant PARP1
  remaining activity at 1000 µM: 99 ± 8%

## O=C(OC[C@H]1O[C@@H](n2cnc3c(Cl)ncnc32)[C@H](OC(=O)c2ccccc2)[C@@H]1OC(=O)c1ccccc1)c1ccccc1 [compound 6b, 6-Chloro-2′,3′,5′-tri-O-benzoyl-β-D-ribofuranosylpurine riboside]
HeLa cells [3]
  Enhancement of Tpc Cytotoxicity by 10 μM Compounds: 1.9 Times
[1]
  IC50: 2 ± 0.6 µM
[2]
  CC50 at 3 days: 56 ± 26 µM
Human recombinant PARP2
  remaining activity at 1000 µM: 75 ± 16%
Human recombinant PARP1
  remaining activity at 1000 µM: 86 ± 8%
